Positions of bridges follow the written chain, without caps; N, C: chain ends. Non-standard residues stand in square brackets, D forms with d. Residues, ends and D or L forms follow the SMILES beside them. Abu = CC[C@H](N)C(=O)O; Aib = CC(C)(N)C(=O)O; βAla = NCCC(=O)O
What was measured:
Experiment in all cases: cell-based
[1] = molecular target: hNav1.3 (Homo sapiens, UniProt Q9NY46); settings: IonWorks Quattro, use-dependent block, hNav1.3; read-out: IWQ Use Nav1.3
[2] = molecular target: hNav1.7 (Homo sapiens, UniProt Q15858); assay type: cell-based; settings: IonWorks Quattro, use-dependent block, hNav1.7; read-out: IWQ Use Nav1.7
[3] = molecular target: hNav1.5 (Homo sapiens, UniProt Q14524); settings: IonWorks Quattro, use-dependent block, hNav1.5; read-out: IWQ Use Nav1.5

Chain of hNav1.7 (Q15858 whole entry, looked up): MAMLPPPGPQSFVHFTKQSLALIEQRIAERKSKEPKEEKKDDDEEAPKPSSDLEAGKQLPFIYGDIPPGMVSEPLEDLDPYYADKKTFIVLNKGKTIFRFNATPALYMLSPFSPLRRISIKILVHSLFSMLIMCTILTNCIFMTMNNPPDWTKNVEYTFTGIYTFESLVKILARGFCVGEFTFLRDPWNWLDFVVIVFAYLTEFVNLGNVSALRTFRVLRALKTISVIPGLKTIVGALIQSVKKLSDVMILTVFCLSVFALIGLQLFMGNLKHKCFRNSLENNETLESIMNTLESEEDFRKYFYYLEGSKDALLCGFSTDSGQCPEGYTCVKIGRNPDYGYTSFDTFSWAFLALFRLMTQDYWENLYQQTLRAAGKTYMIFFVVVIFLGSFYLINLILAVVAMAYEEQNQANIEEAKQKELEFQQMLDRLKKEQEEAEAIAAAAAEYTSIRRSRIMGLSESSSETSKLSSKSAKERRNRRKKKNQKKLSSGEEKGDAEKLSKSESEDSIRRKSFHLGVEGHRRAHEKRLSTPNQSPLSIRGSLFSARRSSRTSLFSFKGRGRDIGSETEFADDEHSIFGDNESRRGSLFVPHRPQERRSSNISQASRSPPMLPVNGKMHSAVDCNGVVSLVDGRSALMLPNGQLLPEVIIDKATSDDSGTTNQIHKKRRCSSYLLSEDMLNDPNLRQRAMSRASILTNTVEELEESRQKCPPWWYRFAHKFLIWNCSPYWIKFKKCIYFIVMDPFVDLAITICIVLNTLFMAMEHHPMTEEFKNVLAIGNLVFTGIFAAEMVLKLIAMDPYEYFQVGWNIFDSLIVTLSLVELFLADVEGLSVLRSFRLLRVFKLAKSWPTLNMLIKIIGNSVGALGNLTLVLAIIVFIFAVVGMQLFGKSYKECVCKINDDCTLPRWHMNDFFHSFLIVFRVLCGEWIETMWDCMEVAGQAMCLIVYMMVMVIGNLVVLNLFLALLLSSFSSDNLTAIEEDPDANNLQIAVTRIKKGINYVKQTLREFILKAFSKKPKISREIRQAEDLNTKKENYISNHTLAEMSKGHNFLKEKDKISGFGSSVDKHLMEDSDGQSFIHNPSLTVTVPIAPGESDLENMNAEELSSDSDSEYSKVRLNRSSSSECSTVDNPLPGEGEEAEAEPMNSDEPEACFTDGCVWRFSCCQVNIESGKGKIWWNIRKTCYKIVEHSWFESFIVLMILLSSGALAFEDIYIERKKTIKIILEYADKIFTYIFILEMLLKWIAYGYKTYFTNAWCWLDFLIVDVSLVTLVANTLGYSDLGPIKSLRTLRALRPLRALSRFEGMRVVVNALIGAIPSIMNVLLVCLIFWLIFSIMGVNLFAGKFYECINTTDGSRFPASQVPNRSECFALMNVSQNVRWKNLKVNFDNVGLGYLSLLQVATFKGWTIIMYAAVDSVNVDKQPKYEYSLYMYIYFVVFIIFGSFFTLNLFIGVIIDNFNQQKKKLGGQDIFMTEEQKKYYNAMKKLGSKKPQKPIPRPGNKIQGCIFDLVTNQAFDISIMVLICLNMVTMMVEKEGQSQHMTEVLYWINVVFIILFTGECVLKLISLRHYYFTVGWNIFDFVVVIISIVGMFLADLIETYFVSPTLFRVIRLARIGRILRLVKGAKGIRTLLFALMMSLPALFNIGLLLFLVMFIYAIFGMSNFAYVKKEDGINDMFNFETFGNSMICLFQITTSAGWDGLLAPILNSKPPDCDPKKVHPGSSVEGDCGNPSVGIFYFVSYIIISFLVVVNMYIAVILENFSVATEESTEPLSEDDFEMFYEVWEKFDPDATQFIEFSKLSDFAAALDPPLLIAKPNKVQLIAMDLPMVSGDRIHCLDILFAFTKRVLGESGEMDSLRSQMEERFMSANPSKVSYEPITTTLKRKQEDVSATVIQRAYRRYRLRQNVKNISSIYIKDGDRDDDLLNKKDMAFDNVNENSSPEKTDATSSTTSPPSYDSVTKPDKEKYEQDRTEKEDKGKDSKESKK
Chain of hNav1.3 (Q9NY46 whole entry, looked up): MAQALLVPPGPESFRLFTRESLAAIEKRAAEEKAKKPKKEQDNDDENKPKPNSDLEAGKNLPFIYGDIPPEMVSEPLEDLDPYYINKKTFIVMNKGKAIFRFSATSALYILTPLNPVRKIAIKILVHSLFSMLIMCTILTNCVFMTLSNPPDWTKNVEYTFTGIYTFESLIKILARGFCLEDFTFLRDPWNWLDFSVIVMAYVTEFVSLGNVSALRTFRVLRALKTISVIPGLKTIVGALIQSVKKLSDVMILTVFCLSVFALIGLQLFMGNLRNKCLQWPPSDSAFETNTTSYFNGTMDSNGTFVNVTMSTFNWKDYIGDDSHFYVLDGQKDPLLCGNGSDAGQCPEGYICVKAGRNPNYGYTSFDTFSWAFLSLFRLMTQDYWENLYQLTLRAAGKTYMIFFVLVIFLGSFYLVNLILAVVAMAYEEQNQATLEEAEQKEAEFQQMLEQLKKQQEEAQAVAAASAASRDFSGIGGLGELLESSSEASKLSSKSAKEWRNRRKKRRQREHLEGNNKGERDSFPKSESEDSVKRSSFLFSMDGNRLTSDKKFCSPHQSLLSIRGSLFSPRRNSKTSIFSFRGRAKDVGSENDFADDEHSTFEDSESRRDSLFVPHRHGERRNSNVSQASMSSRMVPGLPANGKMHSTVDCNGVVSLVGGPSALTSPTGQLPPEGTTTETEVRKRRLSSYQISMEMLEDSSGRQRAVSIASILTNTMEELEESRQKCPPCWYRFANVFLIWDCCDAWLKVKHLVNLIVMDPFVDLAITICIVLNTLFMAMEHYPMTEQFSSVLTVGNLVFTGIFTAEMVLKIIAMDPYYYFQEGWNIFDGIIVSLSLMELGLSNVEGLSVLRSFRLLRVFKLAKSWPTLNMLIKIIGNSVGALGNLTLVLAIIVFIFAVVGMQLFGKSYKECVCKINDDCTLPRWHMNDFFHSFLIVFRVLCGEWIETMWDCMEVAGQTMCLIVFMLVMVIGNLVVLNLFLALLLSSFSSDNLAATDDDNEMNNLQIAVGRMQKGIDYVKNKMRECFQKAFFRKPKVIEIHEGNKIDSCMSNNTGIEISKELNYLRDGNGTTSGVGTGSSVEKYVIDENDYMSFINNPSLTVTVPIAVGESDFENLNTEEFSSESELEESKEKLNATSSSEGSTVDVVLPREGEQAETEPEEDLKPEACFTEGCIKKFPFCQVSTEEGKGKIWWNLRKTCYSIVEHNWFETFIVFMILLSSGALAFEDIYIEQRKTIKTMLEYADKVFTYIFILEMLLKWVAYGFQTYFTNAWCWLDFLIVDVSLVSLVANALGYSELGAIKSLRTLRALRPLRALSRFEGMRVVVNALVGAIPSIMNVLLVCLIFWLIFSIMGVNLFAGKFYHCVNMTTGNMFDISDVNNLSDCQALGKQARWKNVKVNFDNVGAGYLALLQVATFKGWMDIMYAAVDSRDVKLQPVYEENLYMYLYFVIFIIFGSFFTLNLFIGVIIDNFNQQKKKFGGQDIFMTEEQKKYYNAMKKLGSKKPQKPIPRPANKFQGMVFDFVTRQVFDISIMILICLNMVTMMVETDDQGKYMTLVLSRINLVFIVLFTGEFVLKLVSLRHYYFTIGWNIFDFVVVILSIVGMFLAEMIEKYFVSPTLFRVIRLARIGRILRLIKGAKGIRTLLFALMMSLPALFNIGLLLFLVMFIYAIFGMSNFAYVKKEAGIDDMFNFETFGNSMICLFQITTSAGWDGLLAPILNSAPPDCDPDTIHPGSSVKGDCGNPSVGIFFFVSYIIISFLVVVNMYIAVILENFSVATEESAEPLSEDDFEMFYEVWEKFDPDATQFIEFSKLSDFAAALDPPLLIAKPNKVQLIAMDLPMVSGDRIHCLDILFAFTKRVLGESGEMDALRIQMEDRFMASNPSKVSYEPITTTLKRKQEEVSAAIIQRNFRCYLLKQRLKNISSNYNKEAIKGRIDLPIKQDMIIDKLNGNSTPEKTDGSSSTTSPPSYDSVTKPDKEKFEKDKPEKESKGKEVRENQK

Compound | IC50 [1] | IC50 [2] | IC50 [3]
CC[C@H](C)[C@@H]1NC(=O)[C@@H]2CSSC[C@@H]3NC(=O)[C@H](C(C)C)NC(=O)[C@H](CC(C)C)NC(=O)[C@H](CC(N)=O)NC(=O)[C@@H]4CCCN4C(=O)[C@H](CCCNC(=N)N)NC(=O)[C@H](CSSC[C@H](NC(=O)[C@@H](N)CC(=O)O)C(=O)N[C@@H](CC(C)C)C(=O)NCC(=O)N[C@@H](C)C(=O)N[C@@H](CC(C)C)C(=O)N[C@@H](CCCNC(=N)N)C(=O)N[C@@H](CCCCN)C(=O)N2)NC(=O)[C@H](CSSC[C@@H](C(=O)N[C@@H](CCCCN)C(=O)N[C@@H](Cc2ccc(O)cc2)C(=O)N[C@H](C(=O)N[C@@H](Cc2ccccc2)C(=O)O)C(C)C)NC(=O)[C@H](Cc2c[nH]c4ccccc24)NC(=O)[C@H](Cc2c[nH]cn2)NC(=O)[C@H](Cc2c[nH]cn2)NC(=O)[C@H]([C@@H](C)O)NC(=O)[C@H](CCCNC(=N)N)NC(=O)[C@H](CO)NC3=O)NC(=O)[C@H](CCCCN)NC(=O)[C@H](CC(=O)O)NC(=O)[C@H](CC(N)=O)NC(=O)[C@H](CC(=O)O)NC(=O)[C@@H]2CCCN2C1=O [compound 599] (H-DCLGALRKCIPDNDKCCRPNLVCSRTHHWCKYVF-OH; disulfide 2-17, 9-23, 16-30) | 2.2 µM | > 5 µM | 12.7 µM
CC[C@H](C)[C@@H]1NC(=O)[C@@H]2CSSC[C@@H]3NC(=O)[C@H](C(C)C)NC(=O)[C@H](CC(C)C)NC(=O)[C@H](CC(N)=O)NC(=O)[C@@H]4CCCN4C(=O)[C@H](CCCNC(=N)N)NC(=O)[C@H](CSSC[C@H](NC(=O)[C@@H](N)CC(=O)O)C(=O)N[C@@H](CC(C)C)C(=O)NCC(=O)N[C@@H](C)C(=O)N[C@@H](CC(C)C)C(=O)N[C@@H](CCCNC(=N)N)C(=O)N[C@@H](CCCCN)C(=O)N2)NC(=O)[C@H](CSSC[C@@H](C(=O)N[C@@H](CCCCN)C(=O)N[C@@H](Cc2ccc(O)cc2)C(=O)N[C@H](C(=O)N[C@@H](Cc2ccccc2)C(=O)O)C(C)C)NC(=O)[C@H](Cc2c[nH]c4ccccc24)NC(=O)[C@H](CCCCN)NC(=O)[C@H](Cc2c[nH]cn2)NC(=O)[C@H]([C@@H](C)O)NC(=O)[C@H](CCCNC(=N)N)NC(=O)[C@H](CO)NC3=O)NC(=O)[C@H](CCCCN)NC(=O)[C@H](CC(=O)O)NC(=O)[C@H](CC(N)=O)NC(=O)[C@H](CC(=O)O)NC(=O)[C@@H]2CCCN2C1=O [compound 600] (H-DCLGALRKCIPDNDKCCRPNLVCSRTHKWCKYVF-OH; disulfide 2-17, 9-23, 16-30) | 3.1 µM | > 5 µM | 12.6 µM
CC[C@H](C)[C@@H]1NC(=O)[C@@H]2CSSC[C@@H]3NC(=O)[C@H](C(C)C)NC(=O)[C@H](CC(C)C)NC(=O)[C@H](CC(N)=O)NC(=O)[C@@H]4CCCN4C(=O)[C@H](CCCNC(=N)N)NC(=O)[C@H](CSSC[C@H](NC(=O)[C@@H](N)CC(=O)O)C(=O)N[C@@H](CC(C)C)C(=O)NCC(=O)N[C@@H](C)C(=O)N[C@@H](CC(C)C)C(=O)N[C@@H](CCCNC(=N)N)C(=O)N[C@@H](CCCCN)C(=O)N2)NC(=O)[C@H](CSSC[C@@H](C(=O)N[C@@H](CCCCN)C(=O)N[C@@H](Cc2ccc(O)cc2)C(=O)N[C@H](C(=O)N[C@@H](Cc2ccccc2)C(=O)O)C(C)C)NC(=O)[C@H](Cc2c[nH]c4ccccc24)NC(=O)[C@H](CC(N)=O)NC(=O)[C@H](Cc2c[nH]cn2)NC(=O)[C@H]([C@@H](C)O)NC(=O)[C@H](CCCNC(=N)N)NC(=O)[C@H](CO)NC3=O)NC(=O)[C@H](CCCCN)NC(=O)[C@H](CC(=O)O)NC(=O)[C@H](CC(N)=O)NC(=O)[C@H](CC(=O)O)NC(=O)[C@@H]2CCCN2C1=O [compound 601] (H-DCLGALRKCIPDNDKCCRPNLVCSRTHNWCKYVF-OH; disulfide 2-17, 9-23, 16-30) | 2.6 µM | > 5 µM | 10 µM
CC[C@H](C)[C@@H]1NC(=O)[C@@H]2CSSC[C@@H]3NC(=O)[C@H](C(C)C)NC(=O)[C@H](CC(C)C)NC(=O)[C@H](CC(N)=O)NC(=O)[C@@H]4CCCN4C(=O)[C@H](CCCNC(=N)N)NC(=O)[C@H](CSSC[C@H](NC(=O)[C@@H](N)CC(=O)O)C(=O)N[C@@H](CC(C)C)C(=O)NCC(=O)NCCC(=O)N[C@@H](Cc4ccccc4)C(=O)N[C@@H](CCCNC(=N)N)C(=O)N[C@@H](CCCCN)C(=O)N2)NC(=O)[C@H](CSSC[C@@H](C(=O)N[C@@H](CCCCN)C(=O)N[C@@H](Cc2ccc(O)cc2)C(=O)N[C@H](C(=O)N[C@@H](Cc2ccccc2)C(N)=O)C(C)C)NC(=O)[C@H](Cc2c[nH]c4ccccc24)NC(=O)[C@H](CCCCN)NC(=O)[C@H](Cc2c[nH]cn2)NC(=O)[C@H]([C@@H](C)O)NC(=O)[C@H](CCCNC(=N)N)NC(=O)[C@H](CO)NC3=O)NC(=O)[C@H](CCCCN)NC(=O)[C@H](CC(=O)O)NC(=O)[C@H](CC(N)=O)NC(=O)[C@H](CC(=O)O)NC(=O)[C@@H]2CCCN2C1=O [compound 603] (H-DCLG[βAla]FRKCIPDNDKCCRPNLVCSRTHKWCKYVF-NH2; disulfide 2-17, 9-23, 16-30) | 11.8 µM | 15.3 µM | 9.5 µM
CC[C@H](C)[C@@H]1NC(=O)[C@@H]2CSSC[C@@H]3NC(=O)[C@H](C(C)C)NC(=O)[C@H](CC(C)C)NC(=O)[C@H](CC(N)=O)NC(=O)[C@@H]4CCCN4C(=O)[C@H](CCCNC(=N)N)NC(=O)[C@H](CSSC[C@H](NC(=O)[C@@H](N)CC(=O)O)C(=O)N[C@@H](CC(C)C)C(=O)NCC(=O)NC(C)(C)C(=O)N[C@@H](Cc4ccccc4)C(=O)N[C@@H](CCCNC(=N)N)C(=O)N[C@@H](CCCCN)C(=O)N2)NC(=O)[C@H](CSSC[C@@H](C(=O)N[C@@H](CCCCN)C(=O)N[C@@H](Cc2ccc(O)cc2)C(=O)N[C@H](C(=O)N[C@@H](Cc2ccccc2)C(N)=O)C(C)C)NC(=O)[C@H](Cc2c[nH]c4ccccc24)NC(=O)[C@H](CCCCN)NC(=O)[C@H](Cc2c[nH]cn2)NC(=O)[C@H]([C@@H](C)O)NC(=O)[C@H](CCCNC(=N)N)NC(=O)[C@H](CO)NC3=O)NC(=O)[C@H](CCCCN)NC(=O)[C@H](CC(=O)O)NC(=O)[C@H](CC(N)=O)NC(=O)[C@H](CC(=O)O)NC(=O)[C@@H]2CCCN2C1=O [compound 604] (H-DCLG[Aib]FRKCIPDNDKCCRPNLVCSRTHKWCKYVF-NH2; disulfide 2-17, 9-23, 16-30) | 0.61 µM | 0.44 µM | 6.4 µM
CC[C@@H]1NC(=O)CNC(=O)[C@H](CC(C)C)NC(=O)[C@@H](NC(=O)[C@@H](N)CC(=O)O)CSSC[C@@H]2NC(=O)[C@@H]3CSSC[C@@H](C(=O)N[C@@H](CCCCN)C(=O)N[C@@H](Cc4ccc(O)cc4)C(=O)N[C@H](C(=O)N[C@@H](Cc4ccccc4)C(N)=O)C(C)C)NC(=O)[C@H](Cc4c[nH]c5ccccc45)NC(=O)[C@H](CCCCN)NC(=O)[C@H](Cc4c[nH]cn4)NC(=O)[C@H]([C@@H](C)O)NC(=O)[C@H](CCCNC(=N)N)NC(=O)[C@H](CO)NC(=O)[C@H](CSSC[C@H](NC(=O)[C@H](CCCCN)NC(=O)[C@H](CCCNC(=N)N)NC(=O)[C@H](Cc4ccccc4)NC1=O)C(=O)N[C@@H]([C@@H](C)CC)C(=O)N1CCC[C@H]1C(=O)N[C@@H](CC(=O)O)C(=O)N[C@@H](CC(N)=O)C(=O)N[C@@H](CC(=O)O)C(=O)N[C@@H](CCCCN)C(=O)N3)NC(=O)[C@H](C(C)C)NC(=O)[C@H](CC(C)C)NC(=O)[C@H](CC(N)=O)NC(=O)[C@@H]1CCCN1C(=O)[C@H](CCCNC(=N)N)NC2=O [compound 605] (H-DCLG[Abu]FRKCIPDNDKCCRPNLVCSRTHKWCKYVF-NH2; disulfide 2-17, 9-23, 16-30) | 0.36 µM | 0.17 µM | 9.5 µM

From patent US9340590B2 (priority 2011, dated 2016)
